Patent US20240041823A1, “USE OF MYCOLACTONE (MLN) AND DERIVATIVES THEREOF FOR TREATMENT OF MICROBIAL INFECTIONS” (priority 2022, published 2024)

System: SARS-CoV-2 variants of concern (VOC)
Assay type: cell-based
Settings: plaque assay

mycolactone [MLN]
IC50 fold lower than Remdesivir: 9-18 fold
